Data from PubChem BioAssay AID296 (DTP/NCI, 2004).
“And” between values parts separate entries of the source, which are not always exact repeats. Identical values can stand only once. Results filed as inconclusive are left out.

Tested on: MX-1 breast xenograft, nude mice, tumor weight T/C
Test: NCI In Vivo Anticancer Drug Screen. Data for tumor model Human Mammary Carcinoma MX-1 Xenograft (intrarenal inoculation) in NU/NU Swiss (nude) mice
Details: endpoint: mean tumor weight change, higher = larger tumour
Method in brief: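 Compound dosed to mice with transplantable tumor; vehicle group as control. Endpoint survival or tumour size, reported as T/C.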

[1] = dose: 300.0 mg/kg/injection, schedule: Q04DX003 (sc), vehicle: saline with Tween-80
[2] = dose: 600.0 mg/kg/injection, schedule: Q04DX003 (sc), vehicle: saline with Tween-80
[3] = dose: 1200.0 mg/kg/injection, schedule: Q04DX003 (sc), vehicle: saline with Tween-80
[4] = dose: 2400.0 mg/kg/injection, schedule: Q04DX003 (sc), vehicle: saline with Tween-80
[5] = dose: 100.0 mg/kg/injection, schedule: Q01DX010 (sc), vehicle: saline with Tween-80
[6] = dose: 800.0 mg/kg/injection, schedule: Q01DX010 (sc), vehicle: saline with Tween-80
[7] = dose: 50.0 mg/kg/injection, schedule: Q04DX003 (sc), vehicle: saline

With `OC(CBr)C(O)C(O)C(O)CBr` (stereo not drawn) the T/C (dose: 15.0 mg/kg/injection, schedule: Q01DX010 (sc), vehicle: Klucel (hydroxypropylcellulose) (HPC)) was 39 % of control and 42 % of control, the T/C (dose: 800.0 mg/kg/injection, schedule: Q01DX010 (sc), vehicle: Klucel (hydroxypropylcellulose) (HPC)) was -100 % of control and the T/C (dose: 1600.0 mg/kg/injection, schedule: Q01DX010 (sc), vehicle: Klucel (hydroxypropylcellulose) (HPC)) was -87 % of control.

With `C=C1N(C)c2ccccc2C1(C)C` the T/C (dose: 25.0 mg/kg/injection, schedule: Q04DX003 (sc), vehicle: saline with Tween-80) was 100 % of control and the T/C (dose: 50.0 mg/kg/injection, schedule: Q04DX003 (sc), vehicle: saline with Tween-80) was 75 % of control.

With `COc1cccc2c1C(=O)c1c(O)c3c(c(O)c1C2=O)C[C@@](O)(C(=O)CO)C[C@@H]3OC1CC(N(C)C)C(O)C(C)O1` (stereo partly drawn) the T/C (dose: 3.0 mg/kg/injection, schedule: Q01DX010 (sc), vehicle: water) was 211 % of control and the T/C (dose: 6.0 mg/kg/injection, schedule: Q01DX010 (sc), vehicle: water) was 227 % of control.

For `CCOC(=O)C(C)(C)Oc1ccc(Cl)cc1`, the T/C [1] was 95 % of control, the T/C [2] was 90 % of control and the T/C [3] was 71 % of control.

With `CCCCCCCCCCCCCCCCS(=O)CC(O)COC(=O)c1ccc(C(=O)OCC(O)CS(=O)CCCCCCCCCCCCCCCC)cc1` (stereo not drawn) the T/C (dose: 50.0 mg/kg/injection, schedule: Q01DX010 (sc), vehicle: saline + Tween-80 + alcohol) was 58 % of control, the T/C (dose: 100.0 mg/kg/injection, schedule: Q01DX010 (sc), vehicle: saline + Tween-80 + alcohol) was 115 % of control and the T/C (dose: 200.0 mg/kg/injection, schedule: Q01DX010 (sc), vehicle: saline + Tween-80 + alcohol) was 100 % of control. For the same compound, the T/C (dose: 400.0 mg/kg/injection, schedule: Q01DX010 (sc), vehicle: saline + Tween-80 + alcohol) was 82 % of control.

For `O=[N+]([O-])c1ccc(N(CCO)CCO)c2c1no[n+]2[O-]`, the T/C (dose: 12.5 mg/kg/injection, schedule: Q04DX003 (ip), vehicle: saline with Tween-80) was 101 % of control, the T/C (dose: 25.0 mg/kg/injection, schedule: Q04DX003 (ip), vehicle: saline with Tween-80) was 108 % of control and the T/C (dose: 50.0 mg/kg/injection, schedule: Q04DX003 (ip), vehicle: saline with Tween-80) was 75 % of control.

For `C1CN2CN3CCN(CN1C3)C2`, the T/C (dose: 100.0 mg/kg/injection, schedule: Q01DX010 (sc), vehicle: saline) was 114 % of control and the T/C (dose: 200.0 mg/kg/injection, schedule: Q01DX010 (sc), vehicle: saline) was 97 % of control.

With `CC1(O)CC23CC(O)C4(O)C(CC(O)C4(C)C)C(C)(O)C2CCC1C3O` (stereo not drawn) the T/C (dose: 0.25 mg/kg/injection, schedule: Q04DX003 (sc), vehicle: Klucel (hydroxypropylcellulose) (HPC)) was 162 % of control.

`O=NN(CCF)C(=O)NC1CCCCC1` was tested, and the T/C (dose: 3.12 mg/kg/injection, schedule: Q04DX003 (sc), vehicle: Klucel (hydroxypropylcellulose) (HPC)) was 119 % of control, the T/C (dose: 6.25 mg/kg/injection, schedule: Q04DX003 (sc), vehicle: Klucel (hydroxypropylcellulose) (HPC)) was 88 % of control and the T/C (dose: 12.5 mg/kg/injection, schedule: Q04DX003 (sc), vehicle: Klucel (hydroxypropylcellulose) (HPC)) was 91 % of control. The T/C (dose: 25.0 mg/kg/injection, schedule: Q04DX003 (sc), vehicle: Klucel (hydroxypropylcellulose) (HPC)) was 92 % of control.

In the case of `OCCOCCN1CCN(CCCN2c3ccccc3Sc3ccc(C(F)(F)F)cc32)CC1`, the T/C (dose: 3.0 mg/kg/injection, schedule: Q01DX010 (sc), vehicle: saline) is reported as 111 % of control, the T/C (dose: 24.0 mg/kg/injection, schedule: Q01DX010 (sc), vehicle: saline) is reported as 41 % of control and 55 % of control and the T/C (dose: 48.0 mg/kg/injection, schedule: Q01DX010 (sc), vehicle: saline) is reported as 39 % of control.

In the case of `CC(=O)OCN(C)C=O`, the T/C (dose: 300.0 mg/kg/injection, schedule: Q01DX010 (sc), vehicle: water) is reported as 100 % of control, the T/C (dose: 600.0 mg/kg/injection, schedule: Q01DX010 (sc), vehicle: water) is reported as 54 % of control and the T/C (dose: 1200.0 mg/kg/injection, schedule: Q01DX010 (sc), vehicle: water) is reported as 18 % of control. The T/C (dose: 2400.0 mg/kg/injection, schedule: Q01DX010 (sc), vehicle: water) was -8 % of control.

For `O=C(NC1CCCCC1)OCc1c(COC(=O)NC2CCCCC2)c(-c2ccc(Cl)c(Cl)c2)n2c1CCC2`, the T/C [1] was 114 % of control, the T/C [2] was 114 % of control and the T/C [3] was 107 % of control. The T/C [4] was 109 % of control.

For `COC1OC(CO)C(O)C(NC(=O)N(C)N=O)C1O` (stereo not drawn), the T/C (dose: 225.0 mg/kg/injection, schedule: Q04DX003 (sc), vehicle: saline) was 45 % of control, the T/C (dose: 900.0 mg/kg/injection, schedule: Q04DX003 (sc), vehicle: saline) was 18 % of control and 20 % of control (2×) and the T/C (dose: 1800.0 mg/kg/injection, schedule: Q04DX003 (sc), vehicle: saline) was 3 % of control and 4 % of control.

`CC1C=NNC1=O` (stereo not drawn) was tested, and the T/C [5] was 123 % of control, the T/C (dose: 400.0 mg/kg/injection, schedule: Q01DX010 (sc), vehicle: saline with Tween-80) was 62 % of control and the T/C [6] was 60 % of control.

With `CN(C)CC(Cl)CCl` (stereo not drawn) the T/C (dose: 75.0 mg/kg/injection, schedule: Q04DX003 (sc), vehicle: saline) was 50 % of control, the T/C (dose: 150.0 mg/kg/injection, schedule: Q04DX003 (sc), vehicle: saline) was 85 % of control and the T/C (dose: 300.0 mg/kg/injection, schedule: Q04DX003 (sc), vehicle: saline) was 28 % of control.

In the case of `C(CSC1=NCCN1)CSC1=NCCN1`, the T/C (dose: 50.0 mg/kg/injection, schedule: Q01DX010 (sc), vehicle: saline) is reported as 103 % of control.

With `CCCCNC(C)C1(O)Cc2c(O)c3c(c(O)c2C(OC2CC(N)C(O)C(C)O2)C1)C(=O)c1c(OC)cccc1C3=O` (stereo not drawn) the T/C (dose: 100.0 mg/kg/injection, schedule: Q01DX010 (sc), vehicle: water) was 115 % of control and the T/C (dose: 200.0 mg/kg/injection, schedule: Q01DX010 (sc), vehicle: water) was 75 % of control.

For `O=C(O)c1cc(Cc2ccc(O)c(C(=O)O)c2)ccc1O` (tested in a mixture with another compound), the T/C (dose: 75.0 mg/kg/injection, schedule: Q04DX003 (sc), vehicle: Klucel (hydroxypropylcellulose) (HPC)) was 63 % of control, the T/C (dose: 150.0 mg/kg/injection, schedule: Q04DX003 (sc), vehicle: Klucel (hydroxypropylcellulose) (HPC)) was 55 % of control and the T/C (dose: 300.0 mg/kg/injection, schedule: Q04DX003 (sc), vehicle: Klucel (hydroxypropylcellulose) (HPC)) was 93 % of control. For the same compound, the T/C (dose: 600.0 mg/kg/injection, schedule: Q04DX003 (sc), vehicle: Klucel (hydroxypropylcellulose) (HPC)) was 76 % of control.

For `Nc1ncn(C2CC(O)C(CO)O2)c(=O)n1` (stereo not drawn), the T/C (dose: 0.2 mg/kg/injection, schedule: Q01DX010 (sc), vehicle: saline) was 114 % of control.

For `CCO/C=C1\SC(=S)N(c2ccccc2C)C1=O`, the T/C [5] was 121 % of control, the T/C (dose: 200.0 mg/kg/injection, schedule: Q01DX010 (sc), vehicle: saline with Tween-80) was 90 % of control and the T/C [6] was 111 % of control.

In the case of `CCCCCCCC(=O)[O][Hg][CH2]C1COC([CH2][Hg][O]C(=O)CCCCCCC)CO1` (stereo not drawn), the T/C [1] is reported as 58 % of control, the T/C [2] is reported as 70 % of control and the T/C [3] is reported as 50 % of control. The T/C [4] was 36 % of control.

With `CCOC(=O)c1ccc(NN=NCCF)cc1` the T/C (dose: 150.0 mg/kg/injection, schedule: Q04DX003 (ip), vehicle: distilled water + Tween-80 + alcohol) was 107 % of control, the T/C (dose: 300.0 mg/kg/injection, schedule: Q04DX003 (ip), vehicle: distilled water + Tween-80 + alcohol) was 112 % of control and the T/C (dose: 600.0 mg/kg/injection, schedule: Q04DX003 (ip), vehicle: distilled water + Tween-80 + alcohol) was 55 % of control.

With `OCC1OC(n2cnc3cncnc32)C(O)C1O` (stereo not drawn) the T/C (dose: 12.5 mg/kg/injection, schedule: Q04DX003 (sc), vehicle: saline) was 90 % of control, the T/C (dose: 25.0 mg/kg/injection, schedule: Q04DX003 (sc), vehicle: saline) was 106 % of control and the T/C [7] was 78 % of control.

With `O=C1c2ccccc2C(=O)c2c(NCCNCCO)ccc(O)c21` the T/C (dose: 25.0 mg/kg/injection, schedule: Q04DX003 (sc), vehicle: suspension in saline) was 95 % of control, the T/C [7] was 92 % of control and the T/C (dose: 100.0 mg/kg/injection, schedule: Q04DX003 (sc), vehicle: saline) was 69 % of control. For the same compound, the T/C (dose: 100.0 mg/kg/injection, schedule: Q04DX003 (sc), vehicle: suspension in saline) was 69 % of control and 78 % of control, the T/C (dose: 200.0 mg/kg/injection, schedule: Q04DX003 (sc), vehicle: saline) was 63 % of control and the T/C (dose: 200.0 mg/kg/injection, schedule: Q04DX003 (sc), vehicle: suspension in saline) was 78 % of control. For the same compound, the T/C (dose: 400.0 mg/kg/injection, schedule: Q04DX003 (sc), vehicle: saline) was 37 % of control and the T/C (dose: 400.0 mg/kg/injection, schedule: Q04DX003 (sc), vehicle: suspension in saline) was 98 % of control.
